Where two headings read alike, the source gives them in different places.
How the values were obtained:
[1] = target: Human α4β2 (Homo sapiens, UniProt P17787+P43681); experiment: Binding at human α4β2 subtype (Table 1)
[2] = target: T1, α7 nAChR Subtype (Rattus norvegicus, UniProt Q05941); experiment: Radioligand binding ([3H]MLA) at α7 nAChR subtype, rat hippocampus membranes; HTS at 5 μM; details: for inhibition at 5 µM: 5 μM compound, 5 nM 3H-MLA, read-out: α7 high throughput screening (HTS) binding
T1 construct: The hippocampus was removed and placed in 10 volumes (weight:volume) of ice-cold preparative buffer; from tissue; host or cells: rat hippocampus membranes
Experimental: Rats (female, Sprague-Dawley), weighing 150-250 g, were maintained on a 12 h light/dark cycle and were allowed free access to water and food supplied by PMI Nutrition International, Inc. Animals were anesthetized with 70% CO2, then decapitated. Brains were removed and placed on an ice-cold platform. The hippocampus was removed and placed in 10 volumes (weight:volume) of ice-cold preparative buffer (137 mM NaCl, 10.7 mM KCl, 5.8 mM KH2PO4, 8 mM Na2HPO4, 20 mM HEPES (free acid), 5 mM iodoacetamide, 1.6 mM EDTA, pH 7.4); PMSF, dissolved in methanol to a final concentration of 100 μM, was added and the tissue suspension was homogenized by Polytron. The homogenate was centrifuged at 18,000×g for 20 min at 4° C. and the resulting pellet was re-suspended in 10 volumes of ice-cold water. After 60 min incubation on ice, a new pellet was collected by centrifugation at 18,000×g for 20 min at 4° C. The final pellet was re-suspended in 10 volumes of buffer and stored at −20° C. On the day of the assay, tissue was thawed, centrifuged at 18,000×g for 20 min, and then re-suspended in ice-cold PBS (Dulbecco's Phosphate Buffered Saline, 138 mM NaCl, 2.67 mM KCl, 1.47 mM KH2PO4, 8.1 mM Na2HPO4, 0.9 mM CaCl2, 0.5 mM MgCl2, Invitrogen/Gibco, pH 7.4) to a final concentration of approximately 2 mg protein/mL. Protein was determined by the method of Lowry et al., J. Biol. Chem. 193: 265 (1951), using bovine serum albumin as the standard.
The binding of [^3H]MLA was measured using a modification of the methods of Davies et al., Neuropharmacol. 38: 679 (1999). [^3H]MLA (Specific Activity=25-35 Ci/mmol) was obtained from Tocris. The binding of [^3H]MLA was determined using a 2 h incubation at 21° C. Incubations were conducted in 48-well micro-titre plates and contained about 200 μg of protein per well in a final incubation volume of 300 μL. The incubation buffer was PBS and the final concentration of [^3H]MLA was 5 nM. The binding reaction was terminated by filtration of the protein containing bound ligand onto glass fiber filters (GF/B, Brandel) using a Brandel Tissue Harvester at room temperature. Filters were soaked in de-ionized water containing 0.33% polyethyleneimine to reduce non-specific binding. Each filter was washed with PBS (3×1 mL) at room temperature. Non-specific binding was determined by inclusion of 50 μM non-radioactive MLA in selected wells.
[…] Each concentration was replicated in triplicate. […] […] Pharmacol. 22: 3099-3108 (1973).

[3] = target: T2, α4β2 nAChR Subtype (Rattus norvegicus, UniProt P09483+P12390); experiment: Radioligand binding ([3H]nicotine) at rat α4β2 nAChR subtype, rat cerebral cortex membranes
T2 construct: The cerebral cortex was removed and placed in 20 volumes (weight:volume) of ice-cold preparative buffer; from tissue; host or cells: rat cerebral cortex membranes
Experimental: Rats (female, Sprague-Dawley), weighing 150-250 g, were maintained on a 12 h light/dark cycle and were allowed free access to water and food supplied by PMI Nutrition International, Inc. Animals were anesthetized with 70% CO2, then decapitated. Brains were removed and placed on an ice-cold platform. The cerebral cortex was removed and placed in 20 volumes (weight:volume) of ice-cold preparative buffer (137 mM NaCl, 10.7 mM KCl, 5.8 mM KH2PO4, 8 mM Na2HPO4, 20 mM HEPES (free acid), 5 mM iodoacetamide, 1.6 mM EDTA, pH 7.4); PMSF, dissolved in methanol to a final concentration of 100 μM, was added and the suspension was homogenized by Polytron. The homogenate was centrifuged at 18,000×g for 20 min at 4° C. and the resulting pellet was re-suspended in 20 volumes of ice-cold water. After 60 min incubation on ice, a new pellet was collected by centrifugation at 18,000×g for 20 min at 4° C. The final pellet was re-suspended in 10 volumes of buffer and stored at −20° C. On the day of the assay, tissue was thawed, centrifuged at 18,000×g for 20 min, and then re-suspended in ice-cold PBS (Dulbecco's Phosphate Buffered Saline, 138 mM NaCl, 2.67 mM KCl, 1.47 mM KH2PO4, 8.1 mM Na2HPO4, 0.9 mM CaCl2, 0.5 mM MgCl2, Invitrogen/Gibco, pH 7.4) to a final concentration of approximately 4 mg protein/mL. Protein was determined by the method of Lowry et al., J. Biol. Chem. 193: 265 (1951), using bovine serum albumin as the standard.
The binding of [^3H]nicotine was measured using a modification of the methods of Romano et al., Science 210: 647 (1980) and Marks et al., Mol. Pharmacol. 30: 427 (1986). The [^3H]nicotine (Specific Activity=81.5 Ci/mmol) was obtained from NEN Research Products. The binding of [^3H]nicotine was measured using a 3 h incubation at 4° C. Incubations were conducted in 48-well micro-titre plates and contained about 400 μg of protein per well in a final incubation volume of 300 μL. The incubation buffer was PBS and the final concentration of [^3H]nicotine was 5 nM. The binding reaction was terminated by filtration of the protein containing bound ligand onto glass fiber filters (GF/B, Brandel) using a Brandel Tissue Harvester at 4° C. Filters were soaked in de-ionized water containing 0.33% polyethyleneimine to reduce non-specific binding. Each filter was washed with ice-cold buffer (3×1 mL). Non-specific binding was determined by inclusion of 10 μM non-radioactive L-nicotine (Acros Organics) in selected wells.
The inhibition of [^3H]nicotine binding by test compounds was determined by including seven different concentrations of the test compound in selected wells. Each concentration was replicated in triplicate. IC50 values were estimated as the concentration of compound that inhibited 50 percent of specific [^3H]nicotine binding. Inhibition constants (Ki values), reported in nM, were calculated from the IC50 values using the method of Cheng et al., Biochem. Pharmacol. 22: 3099 (1973).

[4] = [3H]nicotine 5 nM, rat cortex, read-out: Rat α4β2 Ki

T2 sequence (P09483 31-630): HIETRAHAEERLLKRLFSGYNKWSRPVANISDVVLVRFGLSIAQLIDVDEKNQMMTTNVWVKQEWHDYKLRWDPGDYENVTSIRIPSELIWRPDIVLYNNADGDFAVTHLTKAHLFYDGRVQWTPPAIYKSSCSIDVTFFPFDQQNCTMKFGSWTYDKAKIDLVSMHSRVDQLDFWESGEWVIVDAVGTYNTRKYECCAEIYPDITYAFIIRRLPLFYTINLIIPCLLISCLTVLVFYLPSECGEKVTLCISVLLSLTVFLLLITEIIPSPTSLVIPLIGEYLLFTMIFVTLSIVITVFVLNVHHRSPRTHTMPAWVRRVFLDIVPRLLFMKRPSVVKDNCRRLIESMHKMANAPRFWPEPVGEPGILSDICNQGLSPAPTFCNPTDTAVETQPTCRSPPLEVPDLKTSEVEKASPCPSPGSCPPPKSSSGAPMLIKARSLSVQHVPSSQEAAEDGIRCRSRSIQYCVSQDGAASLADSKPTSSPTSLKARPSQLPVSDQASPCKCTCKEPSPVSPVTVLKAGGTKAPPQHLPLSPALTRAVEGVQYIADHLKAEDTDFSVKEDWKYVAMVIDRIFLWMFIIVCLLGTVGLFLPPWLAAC
T2 sequence (P12390 25-500): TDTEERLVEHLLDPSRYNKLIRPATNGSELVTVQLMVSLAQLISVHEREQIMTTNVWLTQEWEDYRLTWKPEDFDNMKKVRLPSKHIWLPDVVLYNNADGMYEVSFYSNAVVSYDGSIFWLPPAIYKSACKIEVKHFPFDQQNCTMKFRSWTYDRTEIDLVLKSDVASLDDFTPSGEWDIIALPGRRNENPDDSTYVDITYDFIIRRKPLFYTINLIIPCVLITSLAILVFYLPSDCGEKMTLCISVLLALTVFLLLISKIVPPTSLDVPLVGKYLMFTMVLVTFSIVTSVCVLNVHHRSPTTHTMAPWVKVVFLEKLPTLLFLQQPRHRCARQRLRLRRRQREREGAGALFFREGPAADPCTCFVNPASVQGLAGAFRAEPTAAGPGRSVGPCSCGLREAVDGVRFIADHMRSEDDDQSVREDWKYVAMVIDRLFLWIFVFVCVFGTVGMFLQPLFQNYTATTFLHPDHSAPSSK
Human α4β2, sequence (P43681 29-627 limits assumed): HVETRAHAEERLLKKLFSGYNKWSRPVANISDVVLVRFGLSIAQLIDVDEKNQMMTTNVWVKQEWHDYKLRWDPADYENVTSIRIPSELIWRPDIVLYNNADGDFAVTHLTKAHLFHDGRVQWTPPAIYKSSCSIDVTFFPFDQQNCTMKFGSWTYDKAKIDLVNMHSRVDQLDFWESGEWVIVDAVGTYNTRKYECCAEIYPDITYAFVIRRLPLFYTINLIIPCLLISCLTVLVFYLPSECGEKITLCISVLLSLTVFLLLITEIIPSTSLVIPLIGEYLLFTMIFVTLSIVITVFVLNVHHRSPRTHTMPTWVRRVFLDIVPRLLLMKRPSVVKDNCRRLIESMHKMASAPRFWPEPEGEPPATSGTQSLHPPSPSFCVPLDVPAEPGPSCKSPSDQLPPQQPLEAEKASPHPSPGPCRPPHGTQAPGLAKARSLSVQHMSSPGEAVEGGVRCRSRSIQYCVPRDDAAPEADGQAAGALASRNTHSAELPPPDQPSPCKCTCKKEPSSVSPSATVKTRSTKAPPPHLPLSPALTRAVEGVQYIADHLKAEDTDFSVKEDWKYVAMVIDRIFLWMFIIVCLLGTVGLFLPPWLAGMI
Human α4β2, sequence (P17787 26-502): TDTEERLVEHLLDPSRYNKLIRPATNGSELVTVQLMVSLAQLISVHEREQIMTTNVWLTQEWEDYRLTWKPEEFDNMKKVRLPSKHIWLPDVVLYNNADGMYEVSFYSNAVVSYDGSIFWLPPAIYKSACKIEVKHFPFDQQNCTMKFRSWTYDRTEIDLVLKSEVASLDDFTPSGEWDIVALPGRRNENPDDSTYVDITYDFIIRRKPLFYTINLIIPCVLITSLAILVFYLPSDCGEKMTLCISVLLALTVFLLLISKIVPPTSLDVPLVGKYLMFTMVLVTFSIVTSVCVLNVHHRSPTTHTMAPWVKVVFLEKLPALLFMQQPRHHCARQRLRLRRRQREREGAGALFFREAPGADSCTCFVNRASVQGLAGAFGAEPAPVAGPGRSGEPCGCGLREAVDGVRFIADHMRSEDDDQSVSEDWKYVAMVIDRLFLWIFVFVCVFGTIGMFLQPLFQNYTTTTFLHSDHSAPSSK
T1 sequence (Q05941 23-502): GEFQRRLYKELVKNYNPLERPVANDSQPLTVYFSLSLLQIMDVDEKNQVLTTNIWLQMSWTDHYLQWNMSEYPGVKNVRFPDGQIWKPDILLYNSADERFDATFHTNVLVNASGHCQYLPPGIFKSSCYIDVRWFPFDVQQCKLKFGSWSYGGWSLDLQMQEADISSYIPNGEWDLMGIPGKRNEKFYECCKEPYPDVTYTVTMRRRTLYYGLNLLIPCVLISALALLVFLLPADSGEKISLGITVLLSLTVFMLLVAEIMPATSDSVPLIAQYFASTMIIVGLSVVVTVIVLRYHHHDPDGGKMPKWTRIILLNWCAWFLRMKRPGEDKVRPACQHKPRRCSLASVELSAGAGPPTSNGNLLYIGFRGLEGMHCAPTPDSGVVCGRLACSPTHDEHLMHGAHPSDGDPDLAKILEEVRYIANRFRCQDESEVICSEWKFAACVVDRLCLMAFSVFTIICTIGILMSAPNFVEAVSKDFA

| Structure (SMILES) | Ki ([1]; read-out: Human α4β2 Ki) [µM] | inhibition at 5 µM [2] [%] | Ki [3] [µM] | Ki [3, 4] [µM] | Ki ([2]; [3H]MLA 5 nM, rat hippocampus) [µM] | Ki [1] [µM] |
| --- | --- | --- | --- | --- | --- | --- |
| O=C(c1ccncc1)N1CC2CNC(C2)C1 (stereo not drawn) | 0.0297 | ≤ 50 | – | – | – | – |
| O=C(c1ccno1)N1C[C@@H]2CN[C@@H](C2)C1 | 0.0345 | ≤ 50 | 0.0268 | – | – | – |
| Cc1nocc1C(=O)N1C[C@H]2CN[C@H](C2)C1 | 0.0549 | ≤ 50 | 0.0567 | – | – | – |
| Cc1cc(C(=O)N2C[C@H]3CN[C@H](C3)C2)no1 | 0.0171 | ≤ 50 | 0.0148 | – | – | – |
| O=C(c1ccoc1)N1C[C@H]2CN[C@H](C2)C1 | 0.0105 | ≤ 50 | 0.0106 | – | – | – |
| COc1cc(C(=O)N2CC3CNC(C3)C2)on1 (stereo not drawn) | 0.0037 | ≤ 50 | 0.005 | – | – | – |
| Cc1ccoc1C(=O)N1CC2CNC(C2)C1 (stereo not drawn) | 0.0034 | ≤ 50 | – | – | – | – |
| O=C(c1cc(Br)no1)N1CC2CNC(C2)C1 (stereo not drawn) | 0.0028 | ≤ 50 | 0.0034 | – | – | – |
| O=C(c1cccs1)N1C[C@H]2CN[C@H](C2)C1 | 0.0072 | ≤ 50 | 0.0059 | – | – | – |
| N#Cc1coc(C(=O)N2C[C@@H]3CN[C@@H](C3)C2)c1 | 0.0486 | ≤ 50 | 0.0236 | – | – | – |
| O=C(c1ccco1)N1C[C@H]2CN[C@H](C2)C1 | 0.0131 | ≤ 50 | 0.0108 | – | – | – |
| O=C(c1cc(Cl)co1)N1C[C@@H]2CN[C@@H](C2)C1 | 0.0414 | ≤ 50 | 0.0312 | – | – | – |
| CC(C)c1cc(C(=O)N2C[C@@H]3CN[C@@H](C3)C2)on1 | 0.724 | ≤ 50 | – | 0.47 | – | – |
| O=C(c1ccco1)N1CC2CNCC1C2 (stereo not drawn) | 0.217 | ≤ 50 | – | – | – | – |
| O=C(c1ccc(Br)o1)N1CC2CNC(C2)C1 (stereo not drawn) | 0.0008 | ≤ 50 | 0.0145 | – | – | – |
| COc1cc(C(=O)N2CC3CNCC2C3)on1 (stereo not drawn) | 0.306 | ≤ 50 | – | 0.195 | – | – |
| O=C(c1cc(Br)no1)N1C[C@H]2CN[C@H](C2)C1 | 0.0018 | ≤ 50 | 0.0035 | – | – | – |
| O=C(c1ccco1)N1CCC2CNCC21 (stereo not drawn) | 0.851 | ≤ 50 | – | 0.599 | – | – |
| O=C(c1ccco1)N1C[C@@H]2CN[C@@H](C2)C1 | 0.0169 | – | 0.0409 | – | 1.02 | – |
| O=C(c1cc(Br)no1)N1CC2CNCC1C2 (stereo not drawn) | – | ≤ 50 | – | 0.172 | – | 0.0143 |
| Cc1coc(C(=O)N2C[C@@H]3CN[C@@H](C3)C2)c1 | 0.0516 | ≤ 50 | 0.0294 | – | – | – |
| O=C(c1cnco1)N1C[C@H]2CN[C@H](C2)C1 | 0.014 | ≤ 50 | 0.013 | – | – | – |

| Structure (SMILES) | Ki ([1]; read-out: Human α4β2 Ki) [µM] | inhibition at 5 µM [2] [%] | Ki [3] [µM] | Ki [3, 4] [µM] | Ki ([2]; [3H]MLA 5 nM, rat hippocampus) [µM] | Ki [1] [µM] |
| --- | --- | --- | --- | --- | --- | --- |
| Cc1ccoc1C(=O)N1CC2CNCC1C2 (stereo not drawn) | – | ≤ 50 | – | 0.139 | – | 0.0952 |
| O=C(c1ccc(Cl)o1)N1C[C@@H]2CN[C@@H](C2)C1 | 0.0271 | ≤ 50 | 0.0396 | – | – | – |
| Cc1ncoc1C(=O)N1CCC2NCC2C1 (stereo not drawn) | 0.792 | ≤ 50 | – | – | – | – |
| Cc1cc(C(=O)N2C[C@@H]3CN[C@@H](C3)C2)on1 | – | ≤ 50 | – | 0.104 | – | 0.0761 |
| O=C(c1ccc(F)o1)N1C[C@@H]2CN[C@@H](C2)C1 | 0.0145 | ≤ 50 | 0.0093 | – | – | – |
| Cc1ncoc1C(=O)N1C[C@H]2CN[C@H](C2)C1 | 0.0046 | ≤ 50 | 0.0089 | – | – | – |
| O=C(c1ccc(F)o1)N1C[C@H]2CN[C@H](C2)C1 | 0.0069 | ≤ 50 | 0.0085 | – | – | – |
| Cc1nocc1C(=O)N1CC2CCNCC2C1 (stereo not drawn) | 0.892 | ≤ 50 | – | 0.882 | – | – |
| O=C(c1ccco1)N1CC2CCNC2C1 (stereo not drawn) | 0.789 | ≤ 50 | – | 0.832 | – | – |
| O=C(c1cnco1)N1C[C@@H]2CN[C@@H](C2)C1 | 0.0852 | ≤ 50 | 0.0701 | – | – | – |
| Cc1occc1C(=O)N1C[C@H]2CN[C@H](C2)C1 | 0.0109 | ≤ 50 | 0.0173 | – | – | – |
| O=C(c1ccc(Br)o1)N1C[C@H]2CN[C@H](C2)C1 | 0.0068 | ≤ 50 | 0.0144 | – | – | – |
| Cc1cc(C(=O)N2C[C@@H]3CN[C@@H](C3)C2)no1 | 0.503 | ≤ 50 | – | 0.853 | – | – |
| O=C(c1cccnc1)N1CC2CNC(C2)C1 (stereo not drawn) | 0.359 | ≤ 50 | – | – | – | – |
| Cc1ncoc1C(=O)N1CC2CNCCC21 (stereo not drawn) | 0.515 | ≤ 50 | – | – | – | – |
| COc1cc(C(=O)N2C[C@@H]3CN[C@@H](C3)C2)on1 | – | ≤ 50 | – | 0.367 | – | 0.0954 |
| O=C(c1ccncc1)N1CC2CNCC1C2 (stereo not drawn) | 0.132 | ≤ 50 | – | 0.317 | – | – |
| Cc1nocc1C(=O)N1CC2CCNC2C1 (stereo not drawn) | 0.639 | ≤ 50 | – | 0.222 | – | – |
| Cc1ncoc1C(=O)N1CC2CCNCC2C1 (stereo not drawn) | 0.213 | ≤ 50 | – | 0.952 | – | – |
| O=C(c1ccco1)N1CC2CNC(C2)C1 (stereo not drawn) | 0.0239 | ≤ 50 | 0.0192 | – | – | – |
| O=C(c1ccc(Br)o1)N1C[C@@H]2CN[C@@H](C2)C1 [drawing 16] | 0.0429 | ≤ 50 | 0.0385 | – | – | – |
| O=C(c1ccno1)N1C[C@H]2CN[C@H](C2)C1 | 0.0114 | ≤ 50 | 0.0102 | – | – | – |
